Laboratory results taken from PMC4770715, “LIM kinase inhibitors disrupt mitotic microtubule organization and impair tumor cell proliferation” (Oncotarget, 2015).

Experiments:
Assay in all cases: biochemical
Design in all cases: KINOMEscan active-site competition binding, percent of control (100 = no competition)
Settings in all cases: competition binding, percent control
[1] = target: FLT3(R834Q) (Homo sapiens, UniProt P36888, R834Q)
[2] = target: EPHB4 (Homo sapiens, UniProt P54760)
[3] = target: EGFR(L858R) (Homo sapiens, UniProt P00533, L858R)
[4] = target: TNNI3K (Homo sapiens, UniProt Q59H18)
[5] = target: CSF1R (Homo sapiens, UniProt P07333)
[6] = target: PLK4 (Homo sapiens, UniProt O00444)
[7] = target: T1, RSK2(Kin.Dom.1-N-terminal) (Homo sapiens, UniProt P51812)
T1 construct: gene RPS6KA3; Kin.Dom.1-N-terminal
T1 sequence (P51812 whole entry): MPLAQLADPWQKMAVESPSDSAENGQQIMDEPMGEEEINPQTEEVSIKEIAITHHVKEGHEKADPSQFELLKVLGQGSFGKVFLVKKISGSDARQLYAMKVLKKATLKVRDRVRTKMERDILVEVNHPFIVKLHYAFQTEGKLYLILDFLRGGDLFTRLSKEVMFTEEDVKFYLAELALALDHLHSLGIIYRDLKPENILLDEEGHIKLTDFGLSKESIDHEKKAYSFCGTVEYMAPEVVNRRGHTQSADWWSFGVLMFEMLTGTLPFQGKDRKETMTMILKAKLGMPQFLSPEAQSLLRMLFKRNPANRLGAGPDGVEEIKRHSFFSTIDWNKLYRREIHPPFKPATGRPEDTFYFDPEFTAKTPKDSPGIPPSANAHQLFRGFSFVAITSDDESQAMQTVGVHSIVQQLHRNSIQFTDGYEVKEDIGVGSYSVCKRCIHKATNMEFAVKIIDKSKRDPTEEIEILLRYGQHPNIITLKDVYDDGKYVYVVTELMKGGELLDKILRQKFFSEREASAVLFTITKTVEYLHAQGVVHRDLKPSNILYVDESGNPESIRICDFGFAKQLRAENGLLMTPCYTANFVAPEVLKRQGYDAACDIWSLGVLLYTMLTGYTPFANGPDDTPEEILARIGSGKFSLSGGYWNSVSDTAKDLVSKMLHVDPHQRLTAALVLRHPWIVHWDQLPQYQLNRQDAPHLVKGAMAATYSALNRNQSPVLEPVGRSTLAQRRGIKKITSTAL

[8] = target: T2, MEK6 (Homo sapiens, UniProt P52564)
T2 construct: gene MAP2K6
T2 sequence (P52564 whole entry): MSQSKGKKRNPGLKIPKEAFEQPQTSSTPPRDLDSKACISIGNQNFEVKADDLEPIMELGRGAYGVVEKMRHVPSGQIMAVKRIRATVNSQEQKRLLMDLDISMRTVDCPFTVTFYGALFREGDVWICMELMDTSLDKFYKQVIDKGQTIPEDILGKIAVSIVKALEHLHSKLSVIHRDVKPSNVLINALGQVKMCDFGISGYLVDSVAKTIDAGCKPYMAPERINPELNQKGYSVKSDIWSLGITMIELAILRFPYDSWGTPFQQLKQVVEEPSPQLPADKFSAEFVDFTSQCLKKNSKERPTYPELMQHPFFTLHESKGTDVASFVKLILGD

[9] = target: CAMK1G (Homo sapiens, UniProt Q96NX5)
Sequence of CAMK1G (Q96NX5 whole entry): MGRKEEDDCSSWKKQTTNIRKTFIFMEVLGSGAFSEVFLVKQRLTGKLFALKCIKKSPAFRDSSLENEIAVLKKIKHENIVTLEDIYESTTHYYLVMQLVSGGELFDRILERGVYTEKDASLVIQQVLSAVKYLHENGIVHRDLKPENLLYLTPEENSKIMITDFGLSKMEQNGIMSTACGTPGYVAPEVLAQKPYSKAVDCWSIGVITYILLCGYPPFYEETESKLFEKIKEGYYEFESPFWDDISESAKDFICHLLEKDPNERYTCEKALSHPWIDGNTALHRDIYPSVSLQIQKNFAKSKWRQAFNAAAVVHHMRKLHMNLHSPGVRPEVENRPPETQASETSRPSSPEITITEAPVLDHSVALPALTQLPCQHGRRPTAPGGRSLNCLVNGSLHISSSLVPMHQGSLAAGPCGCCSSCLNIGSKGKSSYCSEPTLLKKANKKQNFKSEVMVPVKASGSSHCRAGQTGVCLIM

[10] = target: T3, MST2 (Homo sapiens, UniProt Q13188)
T3 construct: gene STK3

[11] = target: EGFR(L747-T751del,Sins) (Homo sapiens, UniProt P00533, DEL747-750/T751S)
[12] = target: MARK2 (Homo sapiens, UniProt Q7KZI7)
[13] = target: T4, OSR1 (Homo sapiens, UniProt O95747)
T4 construct: gene OXSR1
T4 sequence (O95747 whole entry): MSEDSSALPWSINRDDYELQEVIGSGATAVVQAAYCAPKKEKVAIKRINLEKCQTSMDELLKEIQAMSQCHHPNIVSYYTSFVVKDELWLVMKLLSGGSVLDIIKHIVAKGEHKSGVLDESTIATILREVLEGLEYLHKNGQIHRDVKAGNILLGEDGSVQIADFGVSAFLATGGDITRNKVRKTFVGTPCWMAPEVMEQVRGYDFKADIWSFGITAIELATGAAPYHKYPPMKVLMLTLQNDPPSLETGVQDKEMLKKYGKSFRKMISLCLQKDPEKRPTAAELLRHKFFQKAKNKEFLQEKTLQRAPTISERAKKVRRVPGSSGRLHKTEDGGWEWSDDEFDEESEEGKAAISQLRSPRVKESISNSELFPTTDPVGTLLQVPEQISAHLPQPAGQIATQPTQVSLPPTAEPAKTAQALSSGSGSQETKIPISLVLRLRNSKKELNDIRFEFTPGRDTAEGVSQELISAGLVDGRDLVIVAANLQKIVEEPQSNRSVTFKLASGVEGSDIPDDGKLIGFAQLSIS

[14] = target: LRRK2 (Homo sapiens, UniProt Q5S007)
[15] = target: T5, ABL1(E255K)-phosphorylated (Homo sapiens, UniProt P00519, E255K)
T5 construct: phosphorylated

[16] = target: CLK1 (Homo sapiens, UniProt P49759)
Sequence of CLK1 (P49759 whole entry): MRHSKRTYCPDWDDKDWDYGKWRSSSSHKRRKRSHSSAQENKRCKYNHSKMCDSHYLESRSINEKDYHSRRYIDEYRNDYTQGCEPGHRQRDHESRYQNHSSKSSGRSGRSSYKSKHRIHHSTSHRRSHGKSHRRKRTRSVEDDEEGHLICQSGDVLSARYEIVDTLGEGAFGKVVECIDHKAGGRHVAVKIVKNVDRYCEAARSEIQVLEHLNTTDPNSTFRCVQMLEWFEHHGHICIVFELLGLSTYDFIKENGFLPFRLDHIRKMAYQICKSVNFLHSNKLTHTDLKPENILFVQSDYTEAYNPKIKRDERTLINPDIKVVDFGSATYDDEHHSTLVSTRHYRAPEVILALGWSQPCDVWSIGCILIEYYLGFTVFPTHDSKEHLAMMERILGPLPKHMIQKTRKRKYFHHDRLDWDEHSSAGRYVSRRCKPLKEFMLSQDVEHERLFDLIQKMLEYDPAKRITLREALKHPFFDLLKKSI

[17] = target: T6, DMPK2 (Homo sapiens, UniProt Q6DT37)
T6 construct: gene CDC42BPG
T6 sequence (Q6DT37 whole entry): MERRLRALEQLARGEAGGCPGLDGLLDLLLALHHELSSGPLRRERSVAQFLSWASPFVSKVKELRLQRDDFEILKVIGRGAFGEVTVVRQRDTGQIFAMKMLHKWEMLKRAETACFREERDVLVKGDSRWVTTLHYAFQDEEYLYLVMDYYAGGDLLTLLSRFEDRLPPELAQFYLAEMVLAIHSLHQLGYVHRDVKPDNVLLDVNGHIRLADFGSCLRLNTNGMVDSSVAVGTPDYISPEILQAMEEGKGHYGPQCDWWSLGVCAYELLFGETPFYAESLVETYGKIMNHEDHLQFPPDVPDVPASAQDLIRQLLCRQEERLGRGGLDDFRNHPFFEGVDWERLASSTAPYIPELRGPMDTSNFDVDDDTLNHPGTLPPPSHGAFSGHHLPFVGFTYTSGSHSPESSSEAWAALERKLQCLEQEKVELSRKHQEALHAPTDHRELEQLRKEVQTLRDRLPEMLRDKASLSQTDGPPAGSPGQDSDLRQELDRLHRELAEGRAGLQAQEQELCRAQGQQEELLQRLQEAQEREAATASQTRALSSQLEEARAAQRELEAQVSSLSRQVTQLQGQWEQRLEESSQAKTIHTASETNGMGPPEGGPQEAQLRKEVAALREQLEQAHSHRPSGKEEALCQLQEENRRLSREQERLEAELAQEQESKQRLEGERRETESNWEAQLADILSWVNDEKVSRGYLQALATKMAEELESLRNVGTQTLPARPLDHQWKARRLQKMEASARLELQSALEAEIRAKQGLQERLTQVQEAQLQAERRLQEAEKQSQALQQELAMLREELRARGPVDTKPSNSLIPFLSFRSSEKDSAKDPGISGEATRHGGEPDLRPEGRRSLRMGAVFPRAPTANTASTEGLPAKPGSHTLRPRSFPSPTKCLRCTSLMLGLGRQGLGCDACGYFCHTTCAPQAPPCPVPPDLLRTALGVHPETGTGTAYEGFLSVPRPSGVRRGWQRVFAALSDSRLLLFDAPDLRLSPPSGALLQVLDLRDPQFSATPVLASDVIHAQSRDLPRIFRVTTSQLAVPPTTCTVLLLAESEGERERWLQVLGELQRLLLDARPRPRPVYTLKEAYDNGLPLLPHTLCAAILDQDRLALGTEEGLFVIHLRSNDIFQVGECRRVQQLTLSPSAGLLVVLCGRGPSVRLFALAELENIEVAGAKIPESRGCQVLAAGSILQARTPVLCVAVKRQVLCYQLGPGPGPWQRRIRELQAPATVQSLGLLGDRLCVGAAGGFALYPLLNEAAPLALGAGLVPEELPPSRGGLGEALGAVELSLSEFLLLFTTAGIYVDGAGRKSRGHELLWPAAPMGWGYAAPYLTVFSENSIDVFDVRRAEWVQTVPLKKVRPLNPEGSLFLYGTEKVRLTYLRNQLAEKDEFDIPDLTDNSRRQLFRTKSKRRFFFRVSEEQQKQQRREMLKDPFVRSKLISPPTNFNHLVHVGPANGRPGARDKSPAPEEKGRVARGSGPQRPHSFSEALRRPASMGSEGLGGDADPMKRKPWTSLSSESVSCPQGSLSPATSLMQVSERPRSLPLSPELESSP

[18] = target: EGFR(T790M) (Homo sapiens, UniProt P00533, T790M)
[19] = target: EPHA3 (Homo sapiens, UniProt P29320)
[20] = target: DAPK2 (Homo sapiens, UniProt Q9UIK4)
Sequence of DAPK2 (Q9UIK4 whole entry): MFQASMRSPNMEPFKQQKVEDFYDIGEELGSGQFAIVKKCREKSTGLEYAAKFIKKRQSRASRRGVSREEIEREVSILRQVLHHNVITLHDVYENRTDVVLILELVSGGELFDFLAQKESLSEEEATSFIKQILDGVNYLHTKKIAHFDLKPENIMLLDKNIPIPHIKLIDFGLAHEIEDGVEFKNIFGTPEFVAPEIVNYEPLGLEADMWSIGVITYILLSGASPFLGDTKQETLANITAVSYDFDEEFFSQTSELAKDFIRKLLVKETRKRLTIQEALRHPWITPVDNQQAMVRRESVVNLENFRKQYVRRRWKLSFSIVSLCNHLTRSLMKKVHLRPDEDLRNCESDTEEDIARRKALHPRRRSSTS

[21] = target: ROS1 (Homo sapiens, UniProt P08922)
[22] = target: ACVR1 (Homo sapiens, UniProt Q04771)
Sequence of ACVR1 (Q04771 whole entry): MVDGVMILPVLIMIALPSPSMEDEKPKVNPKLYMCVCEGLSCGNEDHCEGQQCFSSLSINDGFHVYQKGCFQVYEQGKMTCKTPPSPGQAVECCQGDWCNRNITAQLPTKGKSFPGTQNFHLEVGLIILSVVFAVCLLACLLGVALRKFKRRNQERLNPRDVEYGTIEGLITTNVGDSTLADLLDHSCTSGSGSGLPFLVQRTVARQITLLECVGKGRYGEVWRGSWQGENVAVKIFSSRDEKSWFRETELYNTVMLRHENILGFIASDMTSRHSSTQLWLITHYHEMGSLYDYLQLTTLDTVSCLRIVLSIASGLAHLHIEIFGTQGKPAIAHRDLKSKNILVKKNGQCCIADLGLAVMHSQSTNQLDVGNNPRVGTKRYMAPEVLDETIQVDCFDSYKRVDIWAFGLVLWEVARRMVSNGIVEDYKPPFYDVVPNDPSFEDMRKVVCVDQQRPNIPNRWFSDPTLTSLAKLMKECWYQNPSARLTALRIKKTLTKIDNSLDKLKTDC

Row | Compound | remaining binding at 10 µM [1] [%] | remaining binding at 10 µM [2] [%] | remaining binding at 10 µM [3] [%] | remaining binding at 10 µM [4] [%] | remaining binding at 10 µM [5] [%] | remaining binding at 10 µM [6] [%] | remaining binding at 10 µM [7] [%] | remaining binding at 10 µM [8] [%] | remaining binding at 10 µM [9] [%] | remaining binding at 10 µM [10] [%] | remaining binding at 10 µM [11] [%] | remaining binding at 10 µM [12] [%] | remaining binding at 10 µM [13] [%] | remaining binding at 10 µM [14] [%] | remaining binding at 10 µM [15] [%] | remaining binding at 10 µM [16] [%] | remaining binding at 10 µM [17] [%] | remaining binding at 10 µM [18] [%] | remaining binding at 10 µM [19] [%] | remaining binding at 10 µM [20] [%] | further results
1 | COc1ccc(-c2cnccc2-c2cnc(NC(=O)C(C)C)s2)c(C(F)(F)F)c1 [CRT0105446, N-{5-[3-(4-Methoxy-2-trifluoromethyl-phenyl)-pyridin-4-yl]-hiazol-2-yl}-isobutyramide] | 88 | 93 | 76 | 93 | 51 | 89 | 37 | 100 | 99 | 100 | 100 | 63 | 100 | 91 | 78 | 85 | 93 | 78 | 87 | 87 | remaining binding at 10 µM [21]: 100%; remaining binding at 10 µM [22]: 100%
2 | Cc1ccc(-c2cnccc2-c2cnc(Nc3ccc(O)cc3)s2)c(Cl)c1 [CRT0105950, 4-{5-[3-(2-Chloro-4-methyl-phenyl)-pyridin-4-yl]-thiazol-2-ylamino}-phenol] | 18 | 82 | 69 | 43 | 1.2 | 43 | 0.1 | 20 | 57 | 0.7 | 68 | 28 | 84 | 54 | 79 | 0.4 | 71 | 63 | 71 | 53 | remaining binding at 10 µM [21]: 100%; remaining binding at 10 µM [22]: 52%
